Active and inactive are the calls of the source. The rule behind the calls is not given here.
What was measured:
RKO [1] = assay: Induction of apoptosis in human RKO cells assessed as total apoptotic cells at 1.25 uM after 48 hrs by Annexin V/PI staining based flow cytometric analysis; format: functional
RKO [2] = assay: Induction of cell cycle arrest in human RKO cells assessed as accumulation at S phase at 2.5 uM after 24 hrs by RNase A/propidium iodide staining based flow cytometric analysis (reference value: 13.33 %); format: functional
RKO [3] = assay: Induction of cell cycle arrest in human RKO cells assessed as accumulation at G0/G1 phase at 2.5 uM after 12 hrs by RNase A/propidium iodide staining based flow cytometric analysis (reference value: 60.58 %); format: functional
RKO [4] = assay: Antiproliferative activity against human RKO cells over expressing GAPDH at 1 to 8 uM after 72 hrs by SRB assay; format: functional, cell-based; conditions: dose 1-8 µM
RKO [5] = assay: Induction of cell cycle arrest in human RKO cells assessed as accumulation at sub-G1 phase at 2.5 uM after 36 hrs by RNase A/propidium iodide staining based flow cytometric analysis (reference value: 0.89 %); format: functional
RKO [6] = assay: Induction of apoptosis in human RKO cells assessed as modulation of cleaved caspase 9 expression level after 48 hrs by Western blotting analysis; format: functional, cell-based; conditions: dose 2.5-10 µM
LS174T = assay: Antiproliferative activity against human LS174T cells assessed as inhibition of cell growth incubated for 72 hrs by SRB assay; format: functional, cell-based
RKO [7] = assay: Induction of cell cycle arrest in human RKO cells assessed as accumulation at G2/M phase at 2.5 uM after 36 hrs by RNase A/propidium iodide staining based flow cytometric analysis (reference value: 24.63 %); format: functional
RKO [8] = assay: Induction of cell cycle arrest in human RKO cells assessed as upregulation of cyclin B1 expression measured after 24 hrs by Western blot analysis; format: functional, cell-based; conditions: dose 1.25-5 µM
RKO [9] = assay: Induction of cell cycle arrest in human RKO cells assessed as accumulation at G0/G1 phase at 2.5 uM after 24 hrs by RNase A/propidium iodide staining based flow cytometric analysis (reference value: 51.49 %); format: functional
RKO [10] = assay: Induction of cell cycle arrest in human RKO cells assessed as accumulation at sub-G1 phase at 5 uM after 24 hrs by RNase A/propidium iodide staining based flow cytometric analysis (reference value: 0.40 %); format: functional
RKO [11] = assay: Induction of cell cycle arrest in human RKO cells assessed as accumulation at G2/M phase at 2.5 uM after 24 hrs by RNase A/propidium iodide staining based flow cytometric analysis (reference value: 24.38 %); format: functional
RKO [12] = assay: Antitumor activity against human RKO cells implanted in BALB/c nude mouse assessed as suppression of Ki67 expression level in tumor lysates at 4 to 8 mg/kg, ip administered three times per week for 21 days by Western blotting analysis; format: functional, organism-based; conditions: Neoplasm, dose 4-8 mg/kg, time 21.0 day
RKO [13] = assay: Induction of cell cycle arrest in human RKO cells assessed as accumulation at G2/M phase at 5 uM after 24 hrs by RNase A/propidium iodide staining based flow cytometric analysis (reference value: 24.38 %); format: functional
RKO [14] = assay: Induction of apoptosis in human RKO cells assessed as total apoptotic cells at 10 uM after 48 hrs by Annexin V/PI staining based flow cytometric analysis; format: functional
HCT-116 [15] = assay: Suppression of GAPDH expression in […] at 3 to 6 uM after 24 hrs by Western blotting analysis; format: functional, cell-based; conditions: dose 3-6 µM
RKO [16] = assay: Induction of apoptosis in human RKO cells assessed as increase in p53 level at 2.5 uM measured upto 48 hrs by Western blotting analysis; format: functional, cell-based; conditions: time hrs <=48
RKO [17] = assay: Induction of cell cycle arrest in human RKO cells assessed as accumulation at G0/G1 phase at 5 uM after 24 hrs by RNase A/propidium iodide staining based flow cytometric analysis (reference value: 51.49 %); format: functional
RKO [18] = assay: Induction of cell cycle arrest in human RKO cells assessed as accumulation at sub-G1 phase at 2.5 uM after 48 hrs by RNase A/propidium iodide staining based flow cytometric analysis (reference value: 0.89 %); format: functional
RKO [19] = assay: Induction of cell cycle arrest in human RKO cells assessed as accumulation at G0/G1 phase at 2.5 uM after 48 hrs by RNase A/propidium iodide staining based flow cytometric analysis (reference value: 60.58 %); format: functional
RKO [20] = assay: Antitumor activity against human RKO cells implanted in BALB/c nude mouse assessed as inhibition of tumor growth at 8 mg/kg, ip administered three times per week for 21 days and measured every 3 to 4 days by electronic caliper method; format: functional; conditions: 504 h, time 21 day, read-out: TGI
RKO [21] = assay: Antitumor activity against human RKO cells implanted in BALB/c nude mouse assessed as inhibition of tumor growth at 4 mg/kg, ip administered three times per week for 21 days and measured every 3 to 4 days by electronic caliper method; format: functional; conditions: 504 h, time 21 day, read-out: TGI
RKO [22] = assay: Induction of apoptosis in human RKO cells assessed as increase in cleaved PARP expression at 2.5 uM measured upto 48 hrs by Western blotting analysis; format: functional, cell-based; conditions: time hrs <=48
RKO [23] = assay: Induction of apoptosis in human RKO cells assessed as total apoptotic cells at 5 uM after 48 hrs by Annexin V/PI staining based flow cytometric analysis; format: functional
RKO [24] = assay: Induction of cell cycle arrest in human RKO cells assessed as accumulation at G2/M phase at 2.5 uM after 12 hrs by RNase A/propidium iodide staining based flow cytometric analysis (reference value: 24.63 %); format: functional
RKO [25] = assay: Induction of cell cycle arrest in human RKO cells assessed as accumulation at G0/G1 phase at 2.5 uM after 24 hrs by RNase A/propidium iodide staining based flow cytometric analysis (reference value: 60.58 %); format: functional
RKO [26] = assay: Induction of cell cycle arrest in human RKO cells assessed as accumulation at S phase at 5 uM after 24 hrs by RNase A/propidium iodide staining based flow cytometric analysis (reference value: 24.20 %); format: functional
RKO [27] = assay: Induction of cell cycle arrest in human RKO cells assessed as inactivation of Cdc25C protein at 1.25 to 5 uM measured after 24 hrs by Western blot analysis; format: functional, cell-based; conditions: dose 1.25-5 µM
RKO [28] = assay: Antitumor activity against human RKO cells implanted in ip dosed BALB/c nude mouse assessed as suppression of GAPDH expression in tumor lysates administered three times per week for 21 days by Western blotting analysis; format: functional, organism-based; conditions: Neoplasm, time 21.0 day
RKO [29] = assay: Induction of apoptosis in human RKO cells assessed as total apoptotic cells at 2.5 uM after 48 hrs by Annexin V/PI staining based flow cytometric analysis; format: functional
RKO [30] = assay: Induction of cell cycle arrest in human RKO cells assessed as upregulation of phospho-Chk2 expression at 1.25 to 5 uM measured after 24 hrs by Western blot analysis; format: functional, cell-based; conditions: dose 1.25-5 µM
RKO [31] = assay: Antiproliferative activity against human RKO cells assessed as inhibition of cell growth incubated for 72 hrs by SRB assay; format: functional, cell-based
HCT-116 [32] = assay: Upregulation of E-cadherin expression in […] at 3 to 6 uM after 24 hrs by Western blotting analysis; format: functional, cell-based; conditions: dose 3-6 µM
CCD-18Co = assay: Antiproliferative activity against human CCD-18Co cells assessed as inhibition of cell growth incubated for 72 hrs by SRB assay; format: cell-based

`CCCCCCCCC[C@@H](O)CC(=O)N[C@@H](CC(N)=O)C(=O)N[C@@H](CCC(N)=O)C(=O)N[C@H](CC(=O)c1cc(C)cc(O)c1C(=O)c1c(O)cccc1O)CC(C)C` was tested, and the Activity (RKO [1]) was 7.85%, the Activity (RKO [2]) was 16.64% and the Activity (RKO [3]) was 54.66%. The Activity (RKO [4]) was “Active”, the Activity (RKO [5]) was 3.74% and the Activity (RKO [6]) was “Dose-Dependent Effect”. For the same molecule, the IC50 (LS174T) was 6.36 µM, the Activity (RKO [7]) was 63.62% and the Activity (RKO [8]) was “Dose-Dependent Effect”. The Activity (RKO [9]) was 32.4%, the Activity (RKO [10]) was 1.1% and the Activity (RKO [11]) was 44.01%. For the same molecule, the Activity (RKO [12]) was “Active”, the Activity (RKO [13]) was 51.77% and the Activity (RKO [14]) was 51.04%. The Activity (HCT-116 [15]) was “Active”, the Activity (RKO [16]) was “Active” and the Activity (RKO [17]) was 25.55%. It also gave an Activity (RKO [18]) of 17.94%, an Activity (RKO [19]) of 30.27% and an inhibition in vivo at 8 mg/kg (RKO [20]) of 57.1%. The inhibition in vivo at 4 mg/kg (RKO [21]) was 32.8%, the Activity (RKO [22]) was “Active” and the Activity (RKO [23]) was 36.58%. The Activity (RKO [24]) was 27.91%, the Activity (RKO [25]) was 33.93% and the Activity (RKO [26]) was 22.13%. The Activity (RKO [27]) was “Active”, the Activity (RKO [28]) was “Dose-Dependent Effect” and the Activity (RKO [29]) was 15.14%. For the same molecule, the Activity (RKO [30]) was “Active”, the Activity (RKO [31]) was “Dose-Dependent Effect” and the IC50 (RKO [31]) was 0.93 µM. The Activity (HCT-116 [32]) was “Active” and the IC50 (CCD-18Co) was 39.1 µM.
